The source of these data is patent US20030044800A1, “Drug discovery employing calorimetric target triage” (priority 2000, published 2003).

One assay has as its system hexokinase. As to the kind of experiment: Calorimetric deconvolution of a cofactor mixture with hexokinase and glucose. As to conditions: 5 μL of 20 μM hexokinase into 100 μM glucose and cofactors at 1 mM. Type of assay: biochemical. On the procedure: Hexokinase and glucose were present in each test. Various mixtures of cofactors were added to each test. Only when ATP was present in the mixture was a significant amount of heat generated. 5 μL injections of a 20 μM solution of hexokinase were titrated into a solution of 100 μM glucose and one or more “cofactors”, all at 1 mM concentration. In the initial experiment with the entire library of 15 cofactors present, enzymatic turnover was observed (as in FIG. 12a(ii)). We were then able to successfully separate out the cofactors in subsequent experiments to determine which one was actually necessary to allow the hexokinase to turn over the glucose. […] Only tiny heats of dilution are observed when ATP is absent;

Another assay addresses E. coli protein YJEQ (Escherichia coli, UniProt P39286). As to the kind of experiment: Calorimetric titration of GTP-gamma-S into E. coli protein YJEQ. The following applies: 5 μL injections of 11 mM GTP-gamma-S into 2 mL of 385 μM protein. The class given is binding. On the procedure:
5 μL injections of an 11 mM GTP-gamma-S solution were titrated into 2 mL of a solution containing 385 μM of an E. coli protein for which no function was previously known.

With `Nc1ncnc2c1ncn2[C@@H]1O[C@H](COP(=O)(O)OP(=O)(O)OP(=O)(O)O)[C@@H](O)[C@H]1O` [ATP], the “heat on injection of hexokinase (cofactor needed for turnover of glucose)” value with hexokinase is given as “large negative heat”.

The Kd is the free concentration of one partner at which half of the binding sites on the other are occupied at equilibrium, for simple one-to-one binding. Low values mean higher affinity, high ones lower affinity. At E. coli protein YJEQ, `Nc1nc2c(ncn2[C@@H]2O[C@H](COP(=O)(O)OP(=O)(O)OP(O)(O)=S)[C@@H](O)[C@H]2O)c(=O)[nH]1` [GTP-gamma-S] gave a Kd of 115 µM.
